Laboratory results published in publication PMC7493962, “Structure-based inhibitors targeting the alpha-helical domain of the Spiroplasma melliferum histone-like HU protein” (Scientific Reports, 2020).
≈ marks a conversion by molar mass, not a printed value. Read-outs that look alike come from different tables or passages of the source.

How the values were obtained:
HUSpm = HUSpm (Spiroplasma melliferum, UniProt A0ABX5UAT3); experiment: biochemical; assay type: binding
Method: In silico screening by molecular docking and filtering was performed to identify compounds interacting with the core region of the DNA-binding saddle-like domain of HU proteins (Fig. 1A) previously characterized in[35]. High-resolution spatial structure of HUSpm (PDB ID 5L8Z[9]) was chosen as a target for virtual screening of one million compounds from the Vitas-M laboratory library collection (https://vitasmlab.biz/). The screening (see "Methods" for a description) identified a set of five compounds (Supplementary Table S1), further evaluation of which was carried out by an electromobility shift assay (EMSA) performed as described in[5]. In the assay, formation of DNA–protein complexes retards migration of dye-labeled DNA-duplexes during non-denaturing PAGE that gives a shifted fluorescent band. The presence of an inhibitor prevents complex formation and corresponding band shifting.
All oligonucleotides were synthesized by Evrogen (Moscow, Russia).
For 48 bp DNA duplexes, 8% PAAG was used.

HUMgal = HUMgal (Mycoplasmoides gallisepticum, UniProt A0A0F6CKR5); experiment: EMSA, inhibition of HUMgal DNA binding; design: species or system Mycoplasma gallisepticum
Chain of HUMgal (A0A0F6CKR5 entry or part of it): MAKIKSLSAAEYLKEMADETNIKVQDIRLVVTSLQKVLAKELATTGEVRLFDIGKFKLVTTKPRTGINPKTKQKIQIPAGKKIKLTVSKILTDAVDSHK
Method: (§3) One protein was from mycoplasma M. gallisepticum (HUMgal) and another was HUα-homodimer from E. coli (HUEc). […] To assess the effect of the three BDFs on DNA binding properties of the three HU proteins, increasing concentrations of inhibitors were mixed with preset DNA–protein complexes and EMSA was performed and quantified as described in the Methods.
(§4) Binding of HU proteins to DNA was analyzed by electrophoretic mobility shift assays (EMSA) performed as described previously[5]. Different amounts of the HU proteins (30 nM HUSpm and HUSpm_K35T, 60 nM HUMgal and HUEc, 100 nM HUSpm_K80A and HUSpm_K88A, and 200 mM HUSpm_R57A) were incubated with DNA (10 nM) in 10 μl of the binding buffer (20 mM Tris–HCl pH 8.0, 7% glycerol, and 150 mM of NaCl) for 10 min. Then, the samples were loaded to pre-runned (125 V, 30 min) 10% non-denaturing PAAG, buffered with 100 mM Tris–borate, and electrophoretically separated (125 V, 90 min). […] Gels were visualized using BIO RAD Faros FX Molecular Imager (532 nm EX, 605 nm BP), and quantification was performed using Quantity One software.
(§5) To evaluate the effects of inhibitors, 1 μl volumes of serial dilutions of tested compounds or DMSO were added to the preformed protein-DNA complexes. After five minute incubation, the assay was carried out as described above. Inhibition curves and IC50 values were obtained using GraphPad Prism 5 software.

[1] = test system: HUSpm mutants (F14A, F29A, F31A); experiment: EMSA, inhibitor evaluation on HUSpm mutants F14A, F29A, F31A; assay type: binding, Spiroplasma melliferum; conditions: data not shown
M. gallisepticum S6 = experiment: Broth micro-dilution test, MIC; assay type: cell-based, Mycoplasma gallisepticum; conditions: M. gallisepticum growth in culture, phenol red colour change, three determinations
Source text: (§1) Since HU proteins are known to be essential for mycoplasma cell viability, [32], we assessed the effects of the inhibitors on M. gallisepticum and S. melliferum growth in culture. […] The growth of metabolizing organisms causes a change in the pH of the medium leading to a visible color change due to the presence of phenol red in the medium. When the growth of bacteria is inhibited, color change is not observed. The MIC is the lowest inhibitor concentration that prevents the color change at the time when the color change has developed in control (untreated) samples.
(§2) The S. melliferum KC3 strain was kindly provided by Prof. G. Wroblewsky of the University of Rennes, France. The M. gallisepticum S6 strain was provided by Prof. S. N. Borkhsenius, Institute of Cytology, St. Petersburg, Russian Academy of Science. The bacteria were cultivated as described in[62] without any specific aeration in covered flasks, for less than five passage. M. gallisepticum S6 was cultivated in a modified Edward’s liquid medium (tryptose (20 g/l), Tris (3 g/l), NaCl (5 g/l), KCl (1.3 g/l), yeast dialysate (5%), heat inactivated (56 °C–30 min) horse serum (6%), glucose (0.5%) and penicillin 300U/ml, pH 7.5) at 37 °C for 20 h after 1:100 dilution. […]

S. melliferum KC3 = experiment: Broth micro-dilution test, MIC; assay type: cell-based, Spiroplasma melliferum; conditions: S. melliferum growth in culture, phenol red colour change, three determinations
Source text: as §1, §2

[2] = Solubility (stated in words); assay type: physicochemical; conditions: water
HUSpm_R57A = HUSpm_R57A (Spiroplasma melliferum, UniProt A0ABX5UAT3, R57A); conditions: read-out: IC50 against HUSpm mutant HUSpm_R57A; EMSA with DS24a; mean ± SD from three runs; 200 mM HUSpm_R57A as printed
Method: (§6) Binding of HU proteins to DNA was analyzed by electrophoretic mobility shift assays (EMSA) performed as described previously[5]. Different amounts of the HU proteins (30 nM HUSpm and HUSpm_K35T, 60 nM HUMgal and HUEc, 100 nM HUSpm_K80A and HUSpm_K88A, and 200 mM HUSpm_R57A) were incubated with DNA (10 nM) in 10 μl of the binding buffer (20 mM Tris–HCl pH 8.0, 7% glycerol, and 150 mM of NaCl) for 10 min. Then, the samples were loaded to pre-runned (125 V, 30 min) 10% non-denaturing PAAG, buffered with 100 mM Tris–borate, and electrophoretically separated (125 V, 90 min). […] Gels were visualized using BIO RAD Faros FX Molecular Imager (532 nm EX, 605 nm BP), and quantification was performed using Quantity One software. The dissociation constants (Kd) were calculated as described earlier[16].
as §5

HUSpm_K80A = HUSpm_K80A (Spiroplasma melliferum, UniProt A0ABX5UAT3, K80A); conditions: read-out: IC50 against HUSpm mutant HUSpm_K80A; EMSA with DS24a; mean ± SD from three runs; 100 nM protein
Method: as §6, §5

HUSpm_K88A = HUSpm_K88A (Spiroplasma melliferum, UniProt A0ABX5UAT3, K88A); conditions: read-out: IC50 against HUSpm mutant HUSpm_R88A (so in the source); EMSA with DS24a; mean ± SD from three runs; 100 nM protein
Method: as §6, §5

HUSpm_K35T = HUSpm_K35T (Spiroplasma melliferum, UniProt A0ABX5UAT3, K35T)
Method: Thus, previously obtained HUSpm mutants (F14A, F29A, F31A and K35T) were employed for inhibitor evaluation.
as §6, §5

[3] = target: T1, HUEc (HUα-homodimer from E. coli) (Escherichia coli, UniProt P0ACF0); experiment: biochemical; assay type: binding
T1 construct: made in house
T1 sequence (P0ACF0 whole entry): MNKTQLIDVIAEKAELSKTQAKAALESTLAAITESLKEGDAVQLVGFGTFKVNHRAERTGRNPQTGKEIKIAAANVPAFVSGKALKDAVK
Method: as §3, §4, §5

[4] = test system: HUSpm (Spiroplasma melliferum), PDB:5L8Z_1; experiment: EMSA; conditions: EMSA: 20 mM Tris-HCl pH 8.0, 150 mM NaCl, 7% glycerol, 10 nM DNA, 10 min, temperature not stated; NMR: 50 mM sodium phosphate pH 7.2, 0.1 mM NaN3, 30 C
[5] = EMSA with DS24a duplex, average±SD from three runs, read-out: IC50, half-maximal inhibitory concentration of HUSpm-DNA complex formation
[6] = EMSA with DS24a, average ± SD from three runs, read-out: IC50, inhibition of HUMgal DNA-binding
[7] = EMSA with DS48 duplex, average±SD, n=3, read-out: IC50, half-maximal inhibitory concentration of HUSpm-DNA complex formation

“4,5'-[4,4'-(9H-fluorene-9,9-diyl)bis(4,1-phenylene)]-bis(oxy)-bis(oxomethylene)-bis[2-(m-tolylcarbamoyl)-benzoic acid] [BDF5]” gave an IC50 (HUSpm; [5]) of 6.3 ± 0.7 µM and an IC50 (HUMgal; [6]) of 5.9 ± 0.8 µM.

For O=C(Oc1ccc(C2(c3ccc(OC(=O)c4ccc(C(=O)O)c(C(=O)O)c4)cc3)c3ccccc3-c3ccccc32)cc1)c1ccc(C(=O)O)c(C(=O)O)c1 [BDF1], the “Inhibition of HUSpm-DNA binding, first round of EMSA” value (HUSpm; 100 μM compound, DS48) was “inhibits HUSpm-DNA binding”, the IC50 (HUSpm; [5]) was 6.2 ± 0.5 µM and the IC50 (HUSpm; [7]) was 6.5 ± 0.9 µM.

For O=C(Oc1ccc(C2(c3ccc(OC(=O)c4ccc(C(=O)O)c(C(=O)O)c4)cc3)c3ccccc3-c3ccccc32)cc1)c1ccc(C(=O)O)c(C(=O)O)c1 [BDF4, 4,4'-[4,4'-(9H-fluorene-9,9-diyl)-bis(4,1-phenylene)]-bis(oxy)-bis(oxomethylene)diphthalic acid], the IC50 (HUSpm; read-out: IC50, half-maximal inhibitory concentration of HUSpm-DNA complex formation, EMSA with DS24a duplex, average±SD from three runs) was 5.6 ± 0.8 µM, the IC50 (HUMgal; [6]) was 5 ± 0.6 µM and the “Effect of other mutations (F14A, F29A, F31A) on sensitivity to inhibitor” value [1] was “did not cause any significant effects”. For the same compound, the MIC (M. gallisepticum S6; Mycoplasmoides gallisepticum, S6, read-out: MIC, minimal inhibitory concentration) was 40 to 70 µM (≈ 29.4 to 51.4 µg/mL), the MIC (S. melliferum KC3; Spiroplasma melliferum, KC3, read-out: MIC, minimal inhibitory concentration) was 40 to 70 µM (≈ 29.4 to 51.4 µg/mL) and the Solubility [2] was “water solubility”. For the same compound, the IC50 (HUSpm_R57A) was 6.3 ± 1 µM, the IC50 (HUSpm_K80A) was 5.9 ± 0.9 µM and the IC50 (HUSpm_K88A) was 6.3 ± 1.2 µM. The “Decrease of the IC50 value as compared to wild type HUSpm” value (HUSpm_K35T; HUSpm_K35T vs wild type, DS24a) was “about threefold decrease” and the IC50 (HUSpm_K35T; read-out: IC50 against HUSpm mutant HUSpm_K35T, EMSA with DS24a, mean ± SD from three runs, 30 nM protein) was 1.8 ± 0.3 µM.

Work on O=C(O)c1cccc(C(=O)Oc2ccc(C3(c4ccc(OC(=O)c5cccc(C(=O)O)c5)cc4)c4ccccc4-c4ccccc43)cc2)c1 [BDF6, 3.3′-[4.4′-(9H-fluorene-9.9-diyl)-bis(4.1-phenylene)]-bis(oxy)-bis(oxomethylene)-dibenzoic acid] yielded an IC50 (HUSpm; IC50, half-maximal inhibitory concentration of HUSpm-DNA complex formation, EMSA with DS24a duplex, average±SD from three runs) of 8.2 ± 1.1 µM, an IC50 (HUSpm; IC50 given in figure, HUSpm-DNA binding, DS24a, representative result of one independent assay) of 8.7 µM and an IC50 (HUMgal; DS24a, representative result of one independent assay, read-out: IC50 given in figure, HUMgal DNA binding) of 8.2 µM. It also gave an IC50 (HUMgal; [6]) of 8.1 ± 1 µM, an IC50 ([3]; IC50, inhibition of HUEc DNA-binding, EMSA with DS24a, average ± SD from three runs) of 10 ± 1.3 µM and an IC50 ([3]; IC50 given in figure, HUEc DNA binding, DS24a, representative result of one independent assay) of 9.5 µM. For the same compound, the “MIC, minimal inhibitory concentration” value (M. gallisepticum S6) was “worst MIC”, the “MIC, minimal inhibitory concentration” value (S. melliferum KC3) was “worst MIC” and the Solubility [2] was “limited solubility”.

Compound CSCCC(NS(=O)(=O)c1ccc2c(c1)C(=O)c1cc(S(=O)(=O)NC(CCSC)C(=O)O)ccc1-2)C(=O)O (stereo not shown) [compound 3] has an IC50 (HUSpm; [7]) greater than 100 µM.

For “AGTCTAGAGTGCAAGTTGAGTCCTT / AAGGACTCAACTGCACTCTAGACT [DS24a (24a)]”, the Kd [4] was 0.0026 µM.

Work on “AGTCTAGAGTGCAGTTGAGTCCTTGCTACGACGGATCCCTTAGGTCAG (double strand) [DS48 (48)]” yielded a Kd [4] of 0.0186 µM.

With “AGTCTAGAGTGCAGTTGAGTCCTTGCTACGACGGATCCCTTAGGTCAG / AAGGACTCAACTGCACTCTAGACT / CTGACCTAAGGGATCCGTCGTAG [Nick (N)]” the Kd [4] was 0.0052 µM.

“AGTCTAGAGTGCAGTTGAGTCCTTGCTACGACGGATCCCTTAGGTCAG / CTGACCTAAGGGATCCGTCGTAGCAAGAAAAAAAGACTCAACTGCACTCTAGACT [A7 bulge (A7)]” showed a Kd [4] of 0.002 µM.

Work on “AGTCTAGAGTGCAGTTGAGTCCTTGCTACGACGGATCCCTTAGGTCAG / CTGACCTAAGGGATCCGTCGTAGCAAGAGACTCAACTGCACTCTAGACT [A1 bulge (A1)]” yielded a Kd [4] of 0.0025 µM.
